# Patent US20250228239A1, “MOLECULES HAVING PESTICIDAL UTILITY, AND INTERMEDIATES, COMPOSITIONS, AND PROCESSES, RELATED THERETO” (priority 2024, published 2025)
# Read-outs that look alike come from different tables or passages of the source.
# Legend:
# Assay type in all cases: in vivo
# [1] = system: Yellow Fever Mosquito (Aedes aegypti, AEDSAE); conditions: Yellow Fever Mosquito; for YFM: rating class; for YFM rating: Table ABC / ABC-DP rating
# How it was run: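 Compounds from 4000 ppm DMSO stocks were diluted in 90:10 water/acetone and dispensed into wells, then infested with about 1-day-old larvae in liver-powder water. Covered plates were held at room temperature for 3 days and each well was scored for mortality against a rating scale; six replicate plates per compound.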
# [2] = system: Beet Armyworm (Spodoptera exigua, LAPHEG); test: Bioassays on Beet Armyworm (BAW), 128-well diet tray assay; conditions: Spodoptera exigua, Beet Armyworm
# How it was run: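 Percent larval mortality, averaged across eight wells, scored after five to seven days at 25° C. under 14:10 light-dark. Each well held one to five second instars feeding on diet dosed at 50 μg/cm^2 with compound from 90:10 acetone-water, solvent dried off.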
# [3] = system: Cabbage Looper (Trichoplusia ni, TRIPNI); test: Bioassays on Cabbage Looper (CL), 128-well diet tray assay; conditions: Trichoplusia ni, Cabbage Looper
# How it was run: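 Percent mortality, averaged across eight replicate wells, after second-instar larvae (1–5 per well) fed for five to seven days on diet dosed at 50 μg/cm^2. Compound was applied in acetone-water 90:10 and dried; trays kept vented at 25° C under 14:10 photoperiod.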
# [4] = system: Green Peach Aphid (Myzus persicae, MYZUPE); test: Bioassays on Green Peach Aphid (GPA), foliar spray on cabbage seedlings; conditions: 72 h, Green Peach Aphid
# Experimental: Certain molecules disclosed in this document were tested against GPA using procedures described in the following example. In the reporting of the results, the “GPA & YFM Rating Table” was used (See Table Section).
# Cabbage seedlings grown in 3-inch pots, with 2-3 small (3-5 cm) true leaves, were used as test substrate. The seedlings were infested with 20-50 GPA (wingless adult and nymph stages) one day prior to chemical application. Four pots with individual seedlings were used for each treatment. Test molecules (2 mg) were dissolved in 2 mL of acetone/methanol (1:1) solvent, forming stock solutions of 1000 ppm test molecule. The stock solutions were diluted 5× with 0.025% Tween 20 in water to obtain the solution at 200 ppm test molecule. A hand-held aspirator-type sprayer was used for spraying a solution to both sides of […] leaves until runoff. Reference plants (solvent check) were sprayed with the diluent only containing 20% by volume of acetone/methanol (1:1) solvent. Treated plants were held in a holding room for three days at approximately 25° C. and ambient relative humidity (RH) prior to grading. Evaluation was conducted by counting the number of live aphids per plant under a microscope. Percent control was measured using Abbott's correction formula (W. S. Abbott, “A Method of Computing the Effectiveness of an Insecticide” J. Econ. Entomol. 18 (1925), pp. 265-267) as follows. Corrected % Control=100*(X−Y)/X where X=No. of live aphids on solvent check plants and Y=No. of live aphids on treated plants. The results are indicated in the table entitled “Table ABC: Biological Results” (See Table Section).
# [5] = Table ABC / ABC-DP rating, read-out: BAW rating
# [6] = Table ABC / ABC-DP rating, read-out: CL rating
# [7] = Table ABC / ABC-DP rating, read-out: GPA rating
Compound,YFM [1],"pest or weed control at 50 µg/cm2 ([2]; rating class, read-out: BAW) [%]","pest or weed control at 50 µg/cm2 ([3]; rating class, read-out: CL) [%]","pest or weed control at 200 µg/mL ([4]; rating class, read-out: GPA) [%]",YFM rating [1],"pest or weed control at 50 µg/cm2 [2, 5] [%]","pest or weed control at 50 µg/cm2 [3, 6] [%]","pest or weed control at 200 µg/mL [4, 7] [%]"
"Nc1c(F)ccc(NC(=O)c2cc(NC(=O)[C@H]3[C@H](c4ccc(Cl)cc4)C3(Cl)Cl)ccc2Cl)c1F (relative stereo) [F1593, trans-N-(3-Amino-2,4-difluorophenyl)-2-chloro-5-(2,2-dichloro-3-(4-chlorophenyl)cyclopropane-1-carboxamido)benzamide]",A (80–100),50 to 100,50 to 100,80 to 100,,,,
"O=C(Nc1ccc(F)c(NC(=O)C(F)F)c1F)c1cc(NC(=O)[C@H]2[C@H](c3ccc(F)cc3)C2(Cl)Cl)ccc1Cl (relative stereo) [F1598, trans-2-Chloro-5-(2,2-dichloro-3-(4-fluorophenyl)cyclopropane-1-carboxamido)-N-(3-(2,2-difluoroacetamido)-2,4-difluorophenyl)benzamide]",A (80–100),50 to 100,50 to 100,80 to 100,,,,
"CC(=O)Nc1ccc(F)c(NC(=O)c2cc(NC(=O)[C@H]3[C@H](c4cc(Cl)cc(Cl)c4)C3(Cl)Cl)ccc2Cl)c1 (relative stereo) [F1635, trans-N-(5-Acetamido-2-fluorophenyl)-2-chloro-5-(2,2-dichloro-3-(3,5-dichlorophenyl)cyclopropane-1-carboxamido)benzamide]",A (80–100),50 to 100,50 to 100,0 to 80,,,,
"CC(=O)Nc1cccc(F)c1NC(=O)c1cc(NC(=O)[C@H]2[C@H](c3cc(Cl)cc(Cl)c3)C2(Cl)Cl)ccc1Cl (relative stereo) [F1636, trans-N-(2-Acetamido-6-fluorophenyl)-2-chloro-5-(2,2-dichloro-3-(3,5-dichlorophenyl)cyclopropane-1-carboxamido)benzamide]",A (80–100),50 to 100,50 to 100,0 to 80,,,,
"O=C(NCC(F)(F)F)c1cc(NC(=O)[C@H]2[C@H](c3ccc(F)c(Cl)c3F)C2(Cl)Cl)ccc1Cl (relative stereo) [F2011, trans-2-Chloro-5-(2,2-dichloro-3-(3-chloro-2,4-difluorophenyl)cyclopropane-1-carboxamido)-N-(2,2,2-trifluoroethyl)benzamide]",,,,,A (80–100),50 to 100,50 to 100,0 to 80
"CCNC(=O)c1c(F)ccc(NC(=O)[C@H]2[C@H](c3ccc(F)c(Cl)c3)C2(Cl)Cl)c1F (relative stereo) [F2016, trans-3-(2,2-Dichloro-3-(3-chloro-4-fluorophenyl)cyclopropane-1-carboxamido)-N-ethyl-2,6-difluorobenzamide]",,,,,A (80–100),50 to 100,50 to 100,80 to 100
"O=C(NCC(F)(F)F)c1c(F)ccc(NC(=O)[C@H]2[C@H](c3ccc(F)c(Cl)c3)C2(Cl)Cl)c1F (relative stereo) [F2017, trans-3-(2,2-Dichloro-3-(3-chloro-4-fluorophenyl)cyclopropane-1-carboxamido)-2,6-difluoro-N-(2,2,2-trifluoroethyl)benzamide]",,,,,A (80–100),50 to 100,50 to 100,80 to 100
"O=C(NCC(F)(F)F)c1c(Cl)ccc(NC(=O)[C@H]2[C@H](c3ccc(F)c(Cl)c3)C2(Cl)Cl)c1Cl (relative stereo) [F2020, trans-2,6-Dichloro-3-(2,2-dichloro-3-(3-chloro-4-fluorophenyl)cyclopropane-1-carboxamido)-N-(2,2,2-trifluoroethyl)benzamide]",,,,,A (80–100),50 to 100,50 to 100,0 to 80
"CCCNC(=O)c1c(F)ccc(NC(=O)[C@H]2[C@H](c3ccc(F)c(Cl)c3)C2(Cl)Cl)c1F (relative stereo) [F2021, trans-3-(2,2-Dichloro-3-(3-chloro-4-fluorophenyl)cyclopropane-1-carboxamido)-2,6-difluoro-N-propylbenzamide]",,,,,A (80–100),50 to 100,50 to 100,80 to 100
"O=C(NCCF)c1c(Cl)ccc(NC(=O)[C@H]2[C@H](c3ccc(F)c(Cl)c3)C2(Cl)Cl)c1Cl (relative stereo) [F2025, trans-2,6-Dichloro-3-(2,2-dichloro-3-(3-chloro-4-fluorophenyl)cyclopropane-1-carboxamido)-N-(2-fluoroethyl)benzamide]",,,,,A (80–100),50 to 100,50 to 100,0 to 80
"O=C(NCCCCl)c1c(Cl)ccc(NC(=O)[C@H]2[C@H](c3ccc(F)c(Cl)c3)C2(Cl)Cl)c1Cl (relative stereo) [F2026, trans-2,6-Dichloro-N-(3-chloropropyl)-3-(2,2-dichloro-3-(3-chloro-4-fluorophenyl)cyclopropane-1-carboxamido)benzamide]",,,,,A (80–100),50 to 100,50 to 100,0 to 80
"O=C(NCCF)c1c(F)ccc(NC(=O)[C@H]2[C@H](c3ccc(F)c(Cl)c3)C2(Cl)Cl)c1F (relative stereo) [F2027, trans-3-(2,2-Dichloro-3-(3-chloro-4-fluorophenyl)cyclopropane-1-carboxamido)-2,6-difluoro-N-(2-fluoroethyl)benzamide]",,,,,A (80–100),50 to 100,50 to 100,80 to 100
"Cc1cc(NC(=O)[C@H]2[C@H](c3ccc(F)c(Cl)c3)C2(Cl)Cl)cc(C(=O)NCC(F)(F)C(F)(F)F)c1Cl (relative stereo) [F2039, trans-2-Chloro-5-(2,2-dichloro-3-(3-chloro-4-fluorophenyl)cyclopropane-1-carboxamido)-3-methyl-N-(2,2,3,3,3-pentafluoropropyl)benzamide]",,,,,A (80–100),50 to 100,50 to 100,80 to 100
"Cc1cc(NC(=O)[C@H]2[C@H](c3ccc(F)c(Cl)c3)C2(Cl)Cl)cc(C(=O)NCCCCl)c1Cl (relative stereo) [F2040, trans-2-Chloro-N-(3-chloropropyl)-5-(2,2-dichloro-3-(3-chloro-4-fluorophenyl)cyclopropane-1-carboxamido)-3-methylbenzamide]",,,,,A (80–100),50 to 100,50 to 100,0 to 80
"Cc1c(Cl)cc(NC(=O)[C@H]2[C@H](c3ccc(F)c(Cl)c3)C2(Cl)Cl)cc1C(=O)NCC(F)(F)F (relative stereo) [F2042, trans-3-Chloro-5-(2,2-dichloro-3-(3-chloro-4-fluorophenyl)cyclopropane-1-carboxamido)-2-methyl-N-(2,2,2-trifluoroethyl)benzamide]",,,,,A (80–100),50 to 100,50 to 100,80 to 100
"CC(F)(F)CNC(=O)c1cc(NC(=O)[C@H]2[C@H](c3cc(Cl)cc(Cl)c3)C2(Cl)Cl)ccc1Cl (relative stereo) [F2075, trans-2-Chloro-5-(2,2-dichloro-3-(3,5-dichlorophenyl)cyclopropane-1-carboxamido)-N-(2,2-difluoropropyl)benzamide]",,,,,B (More than 0 – Less than 80),50 to 100,50 to 100,80 to 100
"O=C(CNC(=O)c1cc(NC(=O)[C@H]2[C@H](c3cc(Cl)cc(Cl)c3)C2(Cl)Cl)ccc1Cl)NCC(F)(F)F (relative stereo) [F2078, trans-2-Chloro-5-(2,2-dichloro-3-(3,5-dichlorophenyl)cyclopropane-1-carboxamido)-N-(2-oxo-2-(2,2,2-trifluoroethylamino)ethyl)benzamide]",,,,,A (80–100),50 to 100,50 to 100,80 to 100
